According to US20120149572A1, “USE OF AGROCHEMICAL MIXTURES FOR INCREASING THE HEALTH OF A PLANT” (BASF SE, priority 2009, published 2012):

Tested on: cotyledons
Experiment: Growth of excised cucumber cotyledons (fresh biomass) in treatment solution
Format: in vivo, Cucumbers
Conditions: for Mean cotyledon biomass: 3 days in the dark at 25° C., 20 cotyledons per treatment; for Observed efficacy (%): % biomass increase compared to 0.5% DMSO control; for growth stimulation of the cotyledons: applied alone
Experimental: The effect of dicamba as an example for compound (I), pyraclostrobin as an example for compound (II) and the respective mixture comprising both compounds on the growth of cotyledons, as one indicator of a plant's health, was evaluated. Cucumbers were sown and germinated in the dark at 25° C. for 4 days. Subsequently, 20 cotyledons per treatment were cut and placed in a Petri dish containing 20 ml of the treatment solution. Control cotyledons were treated with the 0.5% DMSO solution. Following the incubation in the dark at 25° C. for 3 days the cotyledons were weight and the fresh biomass recorded (table 1).
The efficacy of the tested compounds was calculated as % of biomass increase compared to the control:
E=(a/b−1)*100 • a corresponds to the biomass (mg) of the treated cotyledons after incubation; • b corresponds to the biomass (mg) of untreated cotyledons after incubation (control).
The expected efficacies of the combinations of the active ingredients were estimated using Colby's formula (Colby, S. R., Calculating synergistic and antagonistic responses of herbicide combinations, Weeds, 15, pp. 20-22, 1967) and compared with the observed efficacies.
Colby's formula: E=x+y−x*y/100 • E expected efficacy, expressed in % of the untreated control, when using the mixture comprising the compounds A and B at the concentrations a and b; • x efficacy, expressed in % of the untreated control, when using compound A at the concentration a; • y efficacy, expressed in % of the untreated control, when using compound B at the concentration b.

| SMILES | Mean cotyledon biomass (1.25 ppm in 0.5% DMSO) | Observed efficacy (%) (1.25 ppm) | growth stimulation of the cotyledons | Mean cotyledon biomass (2 ppm in 0.5% DMSO) | Observed efficacy (%) (2 ppm) |
| --- | --- | --- | --- | --- | --- |
| COc1c(Cl)ccc(Cl)c1C(=O)O [Dicamba, dicamba] | 69.9 mg | −0.8% | no growth stimulation | – | – |
| COC(=O)N(OC)c1ccccc1COc1ccn(-c2ccc(Cl)cc2)n1 [Pyraclostrobin, pyraclostrobin] | – | – | no growth stimulation | 67.7 mg | −3.9% |
